54 compounds from PubChem BioAssay AID651672 (The Scripps Research Institute Molecular Screening Center, 2012) can be followed below.

Values joined by “and” are separate entries in the source; they are usually repeats but may differ in a detail not shown here. Equal entries are not always repeated. Active and inactive are the calls of the source. How the calls were made is not given here.

This assay concerns the target Perilipin-1 (Homo sapiens) (UniProt O60240). Put plainly: ABHD5 and perilipin-1 interaction blockers – biochemical, luminescence, counter-screen for ABHD5-PLIN5 interaction inhibitor project, dose response (AID 651672).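 Further: split Gaussia luciferase complementation between ABHD5 and PLIN1 fusion fragments.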 Conditions: ABHD5-PLIN1 interaction. On the technique in general: Counterscreens check selectivity or assay interference.

Sequence of Perilipin-1 (Homo sapiens) (O60240 whole entry, looked up, the tested form may be a part): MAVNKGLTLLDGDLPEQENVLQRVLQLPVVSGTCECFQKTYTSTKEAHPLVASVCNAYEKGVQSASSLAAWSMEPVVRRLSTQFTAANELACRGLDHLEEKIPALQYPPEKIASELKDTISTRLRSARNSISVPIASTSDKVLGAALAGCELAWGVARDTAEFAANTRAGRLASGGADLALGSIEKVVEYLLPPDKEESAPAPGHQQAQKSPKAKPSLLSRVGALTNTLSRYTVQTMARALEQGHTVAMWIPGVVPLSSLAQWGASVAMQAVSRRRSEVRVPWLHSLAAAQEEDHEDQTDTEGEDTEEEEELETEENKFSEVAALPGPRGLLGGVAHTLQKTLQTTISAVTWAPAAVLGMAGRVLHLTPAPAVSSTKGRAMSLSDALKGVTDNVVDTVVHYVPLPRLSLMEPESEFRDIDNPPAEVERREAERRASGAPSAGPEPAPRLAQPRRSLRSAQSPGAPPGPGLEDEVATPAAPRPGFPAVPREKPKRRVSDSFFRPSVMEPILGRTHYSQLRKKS

Broadly, the IC50 is the concentration at which inhibition is half-maximal. For `O=C(NCc1ccccc1)C(c1cc2ccccc2o1)n1c(=O)c(-c2ccco2)nc2ccccc21` (centres undefined), the IC50 is 2310 nM.
Take `CC(C)(C)NC(=O)C(c1ccnc2ccccc12)n1c(=O)c(-c2ccco2)nc2ccccc21` (centres undefined): the half-maximal inhibitory concentration (IC50) is 4290 nM.
To `O=C(/C=C/c1ccccc1)CC(O)(c1ccccc1)C(F)(F)C(F)F` (centres undefined) belongs 821 nM.
Turning to `Cc1ccc(O)c(C(=O)C=Cc2ccccc2)c1`, the IC50 is 2460 nM.
`CC(=O)Cc1cc(O)c2ccccc2c1OC(=O)c1ccccc1`: the IC50 was 2630 nM.
For `COc1ccc(C(C(=O)Nc2c(C)cccc2C)n2c(=O)c(-c3ccco3)nc3ccccc32)cc1` (centres undefined), the concentration for half-maximal inhibition (IC50) is 1880 nM.
To `CC1CCN(S(=O)(=O)c2ccc(NC(=O)Cc3ccccc3)cc2)CC1` belongs 5330 nM.
Turning to `CCCCCNC(=O)C(c1ccc(C(F)(F)F)cc1)n1c(=O)c(-c2ccco2)nc2ccccc21` (centres undefined), the IC50 was 2910 nM.
To `CCCCCNC(=O)C(c1ccccc1F)n1c(=O)c(-c2ccco2)nc2ccccc21` (centres undefined) belongs 1090 nM.
On to `CC(=O)Nc1ccc(S(=O)(=O)N2c3ccc(F)cc3CCC2C)cc1` (centres undefined), for which the IC50 entry is “inactive”.
To `O=CC1=C(c2ccccc2)Oc2ccccc2O1` belongs 2570 nM.
To `C#CCN(C[C@@H]1[C@@H](OC(=O)NCc2ccc(OC)c(OC)c2)[C@@H](OC(=O)NCc2ccc(OC)c(OC)c2)Cn2c(=O)ccc(=O)n21)S(=O)(=O)c1ccc(C)cc1` belongs 4590 nM; to `CCOc1cc(N)c(Cl)cc1C(=O)NCC1CN(Cc2ccc(F)cc2)CCO1` (centres undefined), 1970 nM.
On to `CC(C)(C)NC(=O)C(c1cc2ccccc2o1)n1c(=O)c(-c2ccco2)nc2ccccc21` (centres undefined), for which the concentration for half-maximal inhibition (IC50) was 1930 nM.
With `CCOC(=O)C1C(OC(=O)c2ccccc2)CC2CCC1N2C` (centres undefined), the IC50 entry was “inactive”.
To `COc1ccc(OCc2cn(CC(=O)c3ccc(O)cc3)nn2)cc1` belongs 3770 nM; to `CCc1nnc(NC(=O)c2nc(S(=O)(=O)Cc3cccc(C)c3)ncc2Cl)s1`, 3290 nM; to `CCN(CC)CCN(CC(=O)Nc1c(C)cc(C)cc1C)C(=O)c1ccccc1`, “inactive”.
To `CC(=O)C1=C(c2cccc([N+](=O)[O-])c2)N(C(C)=O)n2c(C)nnc2S1` belongs 2470 nM; to `CC1Sc2ccc(S(=O)(=O)N3CCC(C(=O)NCc4ccc(Cl)cc4)CC3)cc2NC1=O` (centres undefined), 8370 nM.
Turning to `CN(C)CCOc1ccc(/C(=C(/CCCl)c2ccccc2)c2ccccc2)cc1`, the IC50 is 1140 nM.
To `Cc1cccc(C)c1NC(=O)C(c1ccc(-c2ccccc2)cc1)n1c(=O)c(-c2ccco2)nc2ccccc21` (centres undefined) belongs 1480 nM; to `COc1cc(OC)cc(C(=O)NC(=S)N(Cc2ccccc2)C(C)C)c1`, “inactive”.
For `Cc1ccc(CS(=O)(=O)c2ncc(Cl)c(C(=O)Nc3nnc(C(C)C)s3)n2)cc1`, the concentration for half-maximal inhibition (IC50) is 1710 nM.
As for `CC(=O)Nc1ccc(OCc2cn(CC(=O)c3ccc(O)cc3)nn2)cc1`, the concentration for half-maximal inhibition (IC50) is 2470 nM.
To `Cc1cc(C)c(NC(=O)C[N+](C)(C)CC(O)COc2cccc3ccccc23)c(C)c1` (centres undefined) belongs 7990 nM; to `CCN1/C(=C/C=C/c2oc3ccc(-c4ccccc4)cc3[n+]2CC)Oc2ccc(-c3ccccc3)cc21`, 1240 nM.
On to `O=C(/C(=C/O)N=Nc1ccc(Cl)cc1)c1ccncc1`, for which the IC50 was 7400 nM.
Turning to `COc1ccc(C(C(=O)NC2CCCCC2)n2c(=O)c(-c3ccco3)nc3ccccc32)cc1` (centres undefined), the concentration for half-maximal inhibition (IC50) is 1270 nM.
Take `COc1ccc(C(C(=O)NC(C)(C)C)n2c(=O)c(-c3ccco3)nc3ccccc32)cc1` (centres undefined): the 50% inhibitory concentration (IC50) is 1820 nM.
Take `COc1ccc(NC(=O)C(c2ccccc2)n2c(=O)c(-c3ccco3)nc3ccccc32)cc1` (centres undefined): the IC50 was 8470 nM.
On to `COc1ccc(NC(=O)C(c2cccc3ccccc23)n2c(=O)c(-c3ccco3)nc3ccccc32)cc1` (centres undefined), for which the IC50 result is “inactive”.
Consider `CCCCCCC=C1CCC(CN2CCCC2)C1=O` (centres undefined), for which the IC50 was 1370 nM.
As to `COc1ccccc1-c1cc(C(=O)NC2CCN(C)CC2)c2ccc(Cl)c(C)c2n1`, the IC50 entry is “inactive”.
The same measure for `COc1ccc(C(C(=O)NCc2ccccc2)n2c(=O)c(-c3ccco3)nc3ccccc32)cc1` (centres undefined): 2170 nM; for `Cc1ccc2c(CC(=O)N3CCN(S(=O)(=O)c4ccc5c(c4)OCCO5)CC3)coc2c1`: 5110 nM; for `CCCCn1c(SCC(=O)NCc2ccco2)nnc1-c1ccoc1C`: 4710 nM.
To `O=C(O)CC(O)(CC(=O)O)C(=O)O` belongs 3710 nM; to `COc1cccc2sc(N(CCCN(C)C)C(=O)COc3ccc(Cl)cc3)nc12`, “inactive”; to `CCc1nnc(NC(=O)c2nc(S(=O)(=O)Cc3ccccc3)ncc2Cl)s1`, 4250 nM.
As to `C#CCN(C[C@@H]1[C@@H](OC(=O)Nc2cccs2)[C@@H](OC(=O)Nc2cccs2)Cn2c(=O)ccc(=O)n21)S(=O)(=O)c1ccc(C)cc1`, the 50% inhibitory concentration (IC50) was 2330 nM.
The same measure for `Cc1ccc(NC(=O)CSc2nnc(-c3ccco3)c(-c3ccco3)n2)cc1`: 2660 nM.
To `O=C(/C=C/Sc1ccccc1)c1ccc(Cl)cc1` belongs 3810 nM; to `NC(=NCCCCCCN=C(N)/N=C(\N)Nc1ccc(Cl)cc1)/N=C(\N)Nc1ccc(Cl)cc1`, 2860 nM and 2310 nM.
For the compound `CCC(=O)Nc1cccc(C(=O)/C=C/c2ccccc2)c1`, the concentration for half-maximal inhibition (IC50) was 1980 nM.
Consider `C#CCN(C[C@@H]1[C@@H](OC(=O)NC2CCCC2)[C@@H](OC(=O)NC2CCCC2)Cn2c(=O)ccc(=O)n21)S(=O)(=O)c1ccc(C)cc1`, for which the IC50 is 4750 nM.
To `O=C(/C=C/c1ccc2c(c1)OCCCO2)c1ccccc1O` belongs 5520 nM; to `COc1cc(C)c2sc3ccccc3c(=O)c2c1NCCN(C)C`, 6300 nM; to `C#CCOCCOCCOCCNc1nc(N2CCN(C(=O)CCCCCCCCCCNC(=O)[C@@H](CCSC)n3cc(CCO)nn3)CC2)nc(N2CCN(C(=O)CCCCCCCCCCNC(=O)[C@@H]([C@H](C)O)n3cc(C)nn3)CC2)n1`, “inactive”.
`CC(C)c1ccc(N2C=Nc3ccc(C(C)C)cc3C2)cc1`: the half-maximal inhibitory concentration (IC50) was 7980 nM.
With `CCC1(C)N=C(c2ccc3c(c2)OCO3)CC(c2ccccc2O)N1` (centres undefined), the half-maximal inhibitory concentration (IC50) is 1060 nM.
On to `CCOC(=O)c1c(NC(=O)/C=C/C(=O)O)sc(C)c1-c1ccc(C(C)(C)C)cc1`, for which the IC50 is 4810 nM.
Take `Cc1ccc(C(=O)c2coc3c2C(=O)C(=O)c2ccccc2-3)cc1`: the half-maximal inhibitory concentration (IC50) was 3880 nM.
`COc1ccc(NC(=O)C(c2ccnc3ccccc23)n2c(=O)c(-c3ccco3)nc3ccccc32)cc1` (centres undefined): the 50% inhibitory concentration (IC50) was 4760 nM.
